“Also recorded” adds a separate entry of the source. Read-outs that look alike come from different tables or passages of the source.
Experiments:
ERK1/2 = experiment: Stretch-induced ERK1/2 phosphorylation in retinal pericytes; format: cell-based, bovine
Description: To determine what pathways were activated in retinal pericytes exposed to cardiac profile cyclic stretch, ERK phosphorylation, PI3 kinase activity and Akt phosphorylation were evaluated. Stretch induced a rapid increase in ERK 1/ 2 phosphorylation which was initially evident after 2 minutes, maximal at 5 min (ERK1=20-fold; ERK2=8.9-fold increase) and still maintained above baseline even after 60 min (ERK1=6.3-fold; ERK2=4.5-fold).
Further confirmation that stretch-induced ERK1/2 activation was not involved in mediating stretch-induced VEGF expression was obtained by assaying ERK1/2 phosphorylation after exposure to the inhibitors described herein. The inhibitor response for stretch-induced ERK1/2 phosphorylation was opposite that observed for stretch-induced VEGF expression. Stretch-induced ERK1/2 phosphorylation was reduced by inhibition of MEK1 (85+10.8%, 88+7.1%, p<0.05) or classical/novel PKC (83+23%, 84+7.1% p<0.05) but relatively unaffected by inhibition of PI3 kinase or tyrosine phosphorylation. Adenovirus infection with dominant negative ERK, wild type active ERK63 or b-galactosidase control had no effect on stretch-induced VEGF expression.
Mechanical Stretch: For pericyte experiments, cells were plated on 6-well flexiblebottom culture plates coated with collagen (Flexcell Corp.,Mckeepsport, Pa.). […]

VEGF mRNA = experiment: Stretch-induced VEGF mRNA expression in bovine retinal pericytes (Northern blot); format: cell-based; conditions: BRPC; for effect on stretch-induced VEGF mRNA expression: 9%/60 cpm cyclic stretch, PD98059 20 uM, GF109203X 5 uM; for effect on stretch-induced VEGF mRNA expression / inhibition of stretch-induced VEGF mRNA expression: wortmannin 100 nM, LY294002 50 uM; for inhibition of stretch-induced VEGF mRNA expression: 9%/60 cpm cyclic stretch 3 hours, genistein 20 uM, adenovirus 1×10^8 pfu/ml; for effect on basal VEGF mRNA expression: unstretched
Description: To determine the mechanism by which stretch increased VEGF mRNA expression, inhibitors of MEK1 (PD98059, 20 uM), classical/novel PKC isoforms (GF109203X, 5 uM), tyrosine phosphorylation (genistein, 20 uM) and PI3 kinase (wortmannin, 100 nM and LY294002, 50 uM) were evaluated. In all experiments 9%/60 cpm cyclic stretch for 3 hours induced VEGF mRNA expression. Inhibition of ERK1/2 utilizing PD98059 had little effect on either basal or stretch-induce expression of VEGF. […] LY294002 and wortmannin inhibited stretched induced VEGF mRNA expression by 85±20% (p=0.039) and 96±25% (p=0.035), respectively.
Cell culture: Primary cultures of bovine retinal pericytes (BRPC) were isolated by homogenization and a series of filtration steps. BRPC were cultured in DMEM containing 5.5 mM glucose and 20% FBS. The cells were maintained in 5% CO2 at 37 °C and media were changed every three days. Cells were characterized for their homogeneity by immunoreactivity with monoclonal antibody 3G5. Cells were plated at a density of 2×10^4 cells/cm2 and passaged when confluent. The media were changed every three days and only cells from passages 2-5 were used for experiments.
(§1) Mechanical Stretch: For pericyte experiments, cells were plated on 6-well flexiblebottom culture plates coated with collagen (Flexcell Corp.,Mckeepsport, Pa.). After 2 days, media were changed to DMEM containing 1% calf serum and the cells incubated overnight. Cells were then subjected to uniform radial and circumferential strain in 5% CO2 at 37° C. using a computer-controlled, vacuum stretch apparatus (Flexcer Cell Strain Unit; Flexcel Corp.). A physiologic stretch frequency of 60 cpm and 3-20% prolongation of elastomer bottomed plates were used as previously described.
RNA Extraction: RNA was extracted using the guanidinium thiocynate method. RNA purity was determined by the ratio of optical density (OD) measured at 260 & 280 nm and RNA quantity was estimated using OD measured at 260 nm.
Northern Blot Analysis: Northern blot analysis was performed on 15 μg total RNA per lane after 1% agarose-2M formaldehyde gel electrophoresis and subsequent capillary transfer to Biodyne nylon membranes (Pall BioSupport, East Hills, N.Y.). Membranes underwent ultraviolet crosslinking using a UV Stratalinker 2400 (STRATAGENE, La Jolla, Calif.). Radioactive probes were generated using Amersham Megaprime labeling kits (Buckinghamshire, England) and 32PdCTP (NEN Life Science Products Inc., Boston, Mass.). Blots were pre-hybridized, hybridized and washed 4 times in 0.5×SSC, 5% SDS at 65 °C for 1 hour in a rotating hybridization oven (Robbins Scientific Corporation, Sunnyvale, Calif.). All signals were analyzed using a computing PhosphorImager with ImageQuant software analysis (Molecular Dynamics, Sunnyvale, Calif.). The signal for each sample was normalized by re-probing the same blot using 36B4 cDNA control probe.

Akt = experiment: Stretch-induced Akt phosphorylation in retinal pericytes; format: cell-based, bovine; conditions: cyclic stretch
Description: The mechanism of stretch-induced Akt phosphorylation was evaluated using two PI3 kinase inhibitors (LY294002 and wortmannin), the MEK1 inhibitor PD98059 and the tyrosine kinase inhibitor genistein.
as §1
ERK1/2 and Akt phosphorylation: Cells were washed with cold PBS and lysed in 1X Laemmli buffer containing protease inhibitors as described above. Cell lysates were heated to 95 °C for 2 min and equal volume of lysates were subjected to SDS-PAGE under reducing conditions. The blots were incubated with anti-phosphospecific ERK1(p44)/ERK2(p42) or anti-phosphospecific Akt antibody (New England Biolabs, Beverly, Ma.). Lane loading differences were normalized by reblotting with non-phosphorylation-specific (total) anti ERK1 antibody (Santa Cruz Biological) or anti-total Akt antibody(New England Biolabs).

KDR mRNA [1] = experiment: Angiotensin II-induced KDR mRNA expression; format: cell-based
Description: (§2) Cyclic stretch induces KDR mRNA at least 2.2 fold. […] In contrast, angiotensin II which also induces KDR mRNA is blocked from doing so by candesartan cilexetil, an AT1 receptor antagonist. Thus, unlike Angiotensin II induced KDR expression, stretch induced KDR expression is not mediated through the AT1 receptor pathway.

[2] = Blood pressure in spontaneously hypertensive rats (tail cuff); format: in vivo, rat; conditions: SHR rats, treatment for one week in drinking water
Description: (§3) 12 week-old male spontaneously hypertensive rats (SHR) and weight-matched Wistar-Kyoto (WKY) control animals were used. Systolic and diastolic blood pressures were measured from each animal by tail cuff. Animals were treated with or without 100 mg/kg/day captopril or 10 mg/kg/day candesartan cilexetil for one week. Drugs were administered in drinking water. Blood measurements were repeated after therapy and the retinas individually isolated.

retinal VEGF mRNA = experiment: Retinal VEGF mRNA in spontaneously hypertensive rats (multiplex RT-PCR); format: in vivo, rat; conditions: SHR rats; captopril 100 mg/kg/day or candesartan cilexetil 10 mg/kg/day in drinking water for one week
Description: as §3
(§4) RNA was isolated from individual retinas and RNA reverse transcribed at 42° C. using random hexamer primers. PCR amplification was carried out using a 55° C. annealing temperature. The samples were separated on a 6% nondenaturing polyacrylamide gel. The gel was dried and analyzed by PhosphorImager. Signal intensity was normalized using rat ribosomal phosphoprotein P0 (RRRPP0) as an internal standard.

retinal KDR mRNA = experiment: Retinal KDR mRNA in spontaneously hypertensive rats (multiplex RT-PCR); format: in vivo, rat; conditions: SHR rats, captopril 100 mg/kg/day or candesartan cilexetil 10 mg/kg/day in drinking water for one week
Description: To determine the effect of hypertension on KDR levels in vivo, KDR mRNA was quantified in hypertensive rats (SHR) as well as weight-matched controls (WKY). […] Captopril is an angiotensin converting enzyme (ACE) inhibitor. Candesartan Cilexetil is an angiotensin II antagonist.
as §3, §4

KDR mRNA [3] = experiment: Cyclic stretch-induced KDR mRNA expression; format: cell-based, bovine
Description: as §2
(§5) Cells were seeded on 6-well flexible-bottom plates coated with bovine fibronectin and subjected to uniform radial and circumferential strain using a computercontrolled, vacuum stretch apparatus (Flexcer Cell Strain Unit; Flexcel Corp.) with cardiac profile at a frequency of 60 cpm.

[4] = test system: bovine retinal endothelial cells (BRECs); experiment: 3H-thymidine incorporation (mitogenesis) under cyclic stretch; format: cell-based
Description: Cells can respond to VEGF by proliferation. A measure of proliferation is the rate of cell progression through mitosis. Cells transiting S phase will incorporate ^3H-thymidine.
To determine if the effects of cyclic stretching on mitogenesis are mediated by VEGF signaling, cells were stretched while treated with a VEGF neutralizing antibody.
as §5
Confluent cells were placed in 1% calf serum for 24 hours and then subjected to 9%/60 cpm cyclic stretch for 24 hrs. During the last 12 hrs, VEGF (25 ng/ml final). VEGF neutralizing antibody (10 μg/ml was added 30 minutes prior to stretch onset. ^3H-thymidine (0.5 μCi/ml)was added during the last 6 hours.

Molecule: CN(C)CCCn1cc(C2=C(c3c[nH]c4ccccc34)C(=O)NC2=O)c2ccccc21 [GF109203X]
- effect on stretch-induced ERK1/2 phosphorylation (ERK1/2): inhibition
- effect on stretch-induced VEGF mRNA expression (VEGF mRNA): did not alter

Molecule: COC[C@H]1OC(=O)c2coc3c2[C@@]1(C)C1=C(C3=O)[C@@H]2CCC(=O)[C@@]2(C)C[C@H]1OC(C)=O [wortmannin]
- inhibition of stretch-induced VEGF mRNA expression (VEGF mRNA): 96±25%
- inhibition of stretch-induced Akt phosphorylation (Akt): 119+18%

Molecule: CCOc1nc2cccc(C(=O)OC(C)OC(=O)OC3CCCCC3)c2n1Cc1ccc(-c2ccccc2-c2nn[nH]n2)cc1 (stereo not drawn) [candesartan cilexetil]
- effect on angiotensin II-induced KDR mRNA (KDR mRNA [1]; angiotensin II stimulation): blocked
- effect on blood pressure [2]: normalization
- effect on hypertension-induced elevation of retinal VEGF mRNA (retinal VEGF mRNA): blocked
- effect on hypertension-induced elevation of retinal KDR mRNA (retinal KDR mRNA): blocked
- effect on hypertension-induced elevation of retinal KDR mRNA (retinal KDR mRNA; listed as candesartan): returned to baseline levels
- effect on cyclic stretch-induced KDR mRNA expression (KDR mRNA [3]): not significantly affected
- effect on cyclic stretch-induced KDR mRNA expression (KDR mRNA [3]; listed as candesartan): not inhibited

Molecule: COc1cccc(-c2cc(=O)c3ccccc3o2)c1N [PD98059]
- effect on stretch-induced VEGF mRNA expression (VEGF mRNA): little effect; also recorded: not suppressed
- effect on basal VEGF mRNA expression (VEGF mRNA): little effect
- effect on stretch-induced Akt phosphorylation (Akt): little effect

Molecule: O=c1cc(N2CCOCC2)oc2c(-c3ccccc3)cccc12 [LY294002]
- inhibition of stretch-induced VEGF mRNA expression (VEGF mRNA): 85±20%
- inhibition of stretch-induced Akt phosphorylation (Akt): 119+14%

Molecule: C[C@H](CS)C(=O)N1CCC[C@H]1C(=O)O [captopril]
- effect on blood pressure [2]: normalization
- effect on hypertension-induced elevation of retinal VEGF mRNA (retinal VEGF mRNA): blocked
- effect on hypertension-induced elevation of retinal KDR mRNA (retinal KDR mRNA): blocked; also recorded: returned to baseline levels

Molecule: VEGF
- increase of VEGF-stimulated thymidine uptake by cyclic stretch ([4]; BREC, cyclic stretch plus VEGF): 2.6+/−0.2 fold
- increase in 3H-thymidine uptake ([4]; cyclic stretching in combination with exogenous VEGF (25 ng/ml)): 257±21%
- effect on 3H-thymidine uptake ([4]; exogenous VEGF alone, no stretch): no significant effect

Molecule: angiotensin II (DRVYIHPF; Angiotensin-2; UniProt P01019 25-32, looked up) [peptide that induces KDR mRNA through the AT1 receptor]
- KDR mRNA induction (KDR mRNA [1]): induces

Molecule: O=c1c(-c2ccc(O)cc2)coc2cc(O)cc(O)c12 [genistein]
- effect on stretch-induced ERK1/2 phosphorylation (ERK1/2): lack of response
- inhibition of stretch-induced VEGF mRNA expression (VEGF mRNA): 87±12%
- effect on basal VEGF mRNA expression (VEGF mRNA): without altering
- inhibition of stretch-induced Akt phosphorylation (Akt): 84+14%
